Data on 4 compounds can be found in patent US10577350B2, “Crystalline forms of (R)-N-((4-methoxy-6-methyl-2-oxo-1,2-dihydropyridin-3-yl)methyl)-2-methyl-1-(1-(1-(2,2,2-trifluoroethyl)piperidin-4-yl)ethyl)-1H-indole-3-carboxamide” (Constellation Pharmaceuticals, Inc., priority 2015, dated 2020).

SMILES strings stand for the structures.

Series [1] can be described thus: Aqueous solubility of solid forms (Table 2). It is filed as physicochemical.
The nature of series [2]: DVS moisture sorption at 25° C. It is filed as physicochemical. As to conditions: for Post DVS changes: after DVS, PLM, XRD, DSC, TGA; for DVS final sample wt lower than starting wt: after one full sorption cycle. As for the experimental part: Moisture sorption profiles were generated isothermally at 25° C. using a Hiden IGAsorp moisture sorption analyzer. Samples were dried on the instrument under inert nitrogen at 40° C. for 60 min. Following drying the samples moisture sorption was determined by performing one full cycle of weight measurements at 0, 10, 20, 30, 40, 50, 60, 70, 80, 90 and 95% RH, with exposure time at each humidity set point dependent upon a minimum of 99% confidence in the F1 fit model or 15 min, with a maximum timeout of 120 min. The moisture sorption isotherms were plotted as a function of weight change (relative weight % of the dried starting weight) and % RH.

Series [3] can be described thus: Pharmacokinetics in rat after oral suspension. The settings on record: for Cmax / AUC(0-t): plasma; for AUC(0-t): read-out: AUC0-24 h. It is filed as in vivo, rats. The text has this:
Compound 365 was formulated similarly to Form C, suspension in 0.5% methylcellulose, 0.1% Tween 80 in purified water.

Series [4] is described as follows: Pharmacokinetics in dog after oral suspension. It is filed as in vivo. The settings on record: dogs (both genders), twice-daily oral; for Cmax / AUC(0-t): both sexes, dog, plasma, suspension in 0.5% methylcellulose; for AUC(0-t): read-out: AUC0-24 h. As for the experimental part: Doses levels ranging from 50 mg/kg to 500 mg/kg were permitted to achieve pharmacological relevant systemic exposures.

Series [5] is described as follows: Relative polymorph stability (statement). It is filed as physicochemical. The settings on record: compared with the other forms.
Where [6] appears, read: both sexes, rat, rats (both genders), once-daily oral, suspension in 0.5% methylcellulose, 0.1% Tween 80, 100 mg/kg/day.
The mark [7] stands for this setting: both sexes, rat, rats (both genders), once-daily oral, suspension in 0.5% methylcellulose, 0.1% Tween 80, 300 mg/kg/day.
Where [8] appears, read: both sexes, rat, rats (both genders), once-daily oral, suspension in 0.5% methylcellulose, 0.1% Tween 80, 600 mg/kg/day.
Where [9] appears, read: oral, rat, Table 8, formulated similarly to Form C (suspension in 0.5% methylcellulose, 0.1% Tween 80), 100 mg/kg/day.
The mark [10] stands for this setting: oral, rat, Table 8, formulated similarly to Form C (suspension in 0.5% methylcellulose, 0.1% Tween 80), 300 mg/kg/day.

As for `COc1cc(C)[nH]c(=O)c1CNC(=O)c1c(C)n([C@H](C)C2CCN(CC(F)(F)F)CC2)c2ccccc12` [Form C, (R)—N-((4-methoxy-6-methyl-2-oxo-1,2-dihydropyridin-3-yl)methyl)-2-methyl-1-(1-(1-(2,2,2-trifluoroethyl)piperidin-4-yl)ethyl)-1H-indole-3-carboxamide], the “Aqueous Solubility” value in series [1] (pH 1.2) is “pH 1.2: ≥913 ug/mL”; in series [1] (pH 6.5), “pH 6.5: 14 ug/mL”; in series [1] (pH 7.4) it was “pH 7.4: 9 ug/mL”. Further, the DVS hygroscopicity result in series [2] (25° C.) was “Non-”. For the same compound, the “Post DVS changes” value in series [2] is reported as “No significant”. The DVS wt gain in series [2] (at 95% RH, 25° C.) is reported as not above 2.3% wt. Further, the Cmax (as a rule, the highest concentration seen after dosing) in series [3] (setting [6]) is 6140 ng/mL; in series [3] (setting [7]) it was 12800 ng/mL; in series [3] (setting [8]), 56800 ng/mL; in series [4] (0.1% Tween 80, 50 mg/kg BID), 6600 ng/mL; in series [4] (0.1% Tween 80, 150 mg/kg BID) it was 21300 ng/mL; in series [4] (0.1% Tween 80, 500 mg/kg BID), 34200 ng/mL. The AUC(0-t) in series [3] (setting [6]) came to 19600 ng·h/mL; in series [3] (setting [7]), 86400 ng·h/mL; in series [3] (setting [8]), 128000 ng·h/mL; in series [4] (0.1% Tween 80, 50 mg/kg BID) it was 42.2 µg·h/mL; in series [4] (0.1% Tween 80, 150 mg/kg BID), 176 µg·h/mL; in series [4] (0.1% Tween 80, 500 mg/kg BID), 378 µg·h/mL. Further, the “systemic exposure AUC(0-24), dependence on dose” value in series [3] (rats (both genders), once-daily oral, between 100 and 600 mg/kg) is “increased dose-proportionally”; in series [4] (between 50 and 500 mg/kg BID), “increased mostly dose-proportionally”. Besides, the polymorph stability result in series [5] is reported as “the most stable polymorph”.

On to `COc1cc(C)[nH]c(=O)c1CNC(=O)c1c(C)n([C@H](C)C2CCN(CC(F)(F)F)CC2)c2ccccc12` [Form B, (R)—N-((4-methoxy-6-methyl-2-oxo-1,2-dihydropyridin-3-yl)methyl)-2-methyl-1-(1-(1-(2,2,2-trifluoroethyl)piperidin-4-yl)ethyl)-1H-indole-3-carboxamide], for which the “Aqueous Solubility” value is on record as “pH 1.2: ≥970 ug/mL” in series [1] (pH 1.2), “pH 6.5: 120 ug/mL” in series [1] (pH 6.5) and “pH 7.4: 112 ug/mL” in series [1] (pH 7.4). For the same compound, the “Post DVS changes” value in series [2] is given as “No significant”. The compound further came in with a DVS wt gain in series [2] (at 95% RH, 25° C.) of 7.2% wt gain.

For the compound `COc1cc(C)[nH]c(=O)c1CNC(=O)c1c(C)n([C@H](C)C2CCN(CC(F)(F)F)CC2)c2ccccc12` [Amorphous, (R)—N-((4-methoxy-6-methyl-2-oxo-1,2-dihydropyridin-3-yl)methyl)-2-methyl-1-(1-(1-(2,2,2-trifluoroethyl)piperidin-4-yl)ethyl)-1H-indole-3-carboxamide], the “Aqueous Solubility” value was “pH 1.2: ≥921 ug/mL” in series [1] (pH 1.2), “pH 6.5: 18 ug/mL” in series [1] (pH 6.5) and “pH 7.4: 140 ug/mL” in series [1] (pH 7.4). In series [2], the “Post DVS changes” value is reported as “Amorphous”. Also, in series [2], the “DVS final sample wt lower than starting wt” value is recorded as “same wt ~1%”. In series [2] (at 95% RH, 25° C.), this compound returned a DVS wt gain of 7.4% wt gain. The Cmax in series [3] (setting [9]) worked out at 7160 ng/mL; in series [3] (setting [10]) it was 9810 ng/mL. For the same compound, the AUC(0-t) was found to be 24200 ng·h/mL in series [3] (setting [9]) and 78400 ng·h/mL in series [3] (setting [10]). The “Cmax and AUC compared with Form C” value in series [3] (rat, at both 100 and 300 mpk) was “slightly superior”.

With `COc1cc(C)[nH]c(=O)c1CNC(=O)c1c(C)n([C@H](C)C2CCN(CC(F)(F)F)CC2)c2ccccc12` [Form A, (R)—N-((4-methoxy-6-methyl-2-oxo-1,2-dihydropyridin-3-yl)methyl)-2-methyl-1-(1-(1-(2,2,2-trifluoroethyl)piperidin-4-yl)ethyl)-1H-indole-3-carboxamide], the solubility (as a rule, the concentration that dissolves in the medium under given conditions) in series [1] (aqueous medium at pH 1.2 (buffer not named), pH 1.2, simulated gastric fluid, pH 1.2) is not below 961 µg/mL. Further, the “Aqueous Solubility” value in series [1] (pH 6.5) is “pH 6.5: 31 ug/mL”; in series [1] (pH 7.4), “pH 7.4: 28 ug/mL”. Moreover, the “Post DVS changes” value in series [2] came out at 1% reduction. Also, in series [2], the “DVS final sample wt lower than starting wt” value is listed as “wt ~0.8 lower %”. In addition, the DVS wt gain came out at 2% wt gain at in series [2] (at 80% RH, 25° C.) and 5.3 wt gain at % wt in series [2] (at 95% RH, 25° C.).
